From publication PMC6487966, “Streptococcal dTDP‐L‐rhamnose biosynthesis enzymes: functional characterization and lead compound identification” (Molecular Microbiology, 2019)

Key:
Assay in all cases: bio-layer interferometry, dilution series on biotinylated recombinant enzyme
Format in all cases: binding
[1] = target: GacA (RmlD, dTDP‐4‐dehydrorhamnose reductase) (Streptococcus pyogenes, UniProt Q9A0G6)
[2] = target: T1, RmlB (dTDP‐glucose‐4,6‐dehydratase) (Streptococcus pyogenes, UniProt Q9A045)
T1 construct: gene cpsFQ
T1 sequence (Q9A045 entry or part of it): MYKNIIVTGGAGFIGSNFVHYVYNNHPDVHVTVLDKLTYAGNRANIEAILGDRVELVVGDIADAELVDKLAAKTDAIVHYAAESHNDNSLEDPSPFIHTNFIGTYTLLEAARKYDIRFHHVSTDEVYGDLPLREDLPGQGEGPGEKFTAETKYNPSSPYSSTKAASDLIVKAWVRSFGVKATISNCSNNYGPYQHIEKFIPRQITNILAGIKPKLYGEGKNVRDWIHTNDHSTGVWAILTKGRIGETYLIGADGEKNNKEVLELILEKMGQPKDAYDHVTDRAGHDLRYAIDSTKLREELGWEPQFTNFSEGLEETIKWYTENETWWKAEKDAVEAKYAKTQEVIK

[3] = target: T2, RmlC (dTDP‐4‐keto‐6‐deoxyglucose‐3,5‐epimerase) (Streptococcus pyogenes, UniProt Q5XCG7)
T2 construct: gene rfbC
T2 sequence (Q5XCG7 whole entry): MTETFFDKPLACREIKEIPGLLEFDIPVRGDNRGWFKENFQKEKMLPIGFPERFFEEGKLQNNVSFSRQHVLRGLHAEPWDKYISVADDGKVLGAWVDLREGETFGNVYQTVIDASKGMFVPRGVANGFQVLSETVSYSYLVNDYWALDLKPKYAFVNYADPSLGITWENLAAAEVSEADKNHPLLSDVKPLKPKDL

Sequence of GacA (RmlD, dTDP‐4‐dehydrorhamnose reductase) (Q9A0G6 entry or part of it): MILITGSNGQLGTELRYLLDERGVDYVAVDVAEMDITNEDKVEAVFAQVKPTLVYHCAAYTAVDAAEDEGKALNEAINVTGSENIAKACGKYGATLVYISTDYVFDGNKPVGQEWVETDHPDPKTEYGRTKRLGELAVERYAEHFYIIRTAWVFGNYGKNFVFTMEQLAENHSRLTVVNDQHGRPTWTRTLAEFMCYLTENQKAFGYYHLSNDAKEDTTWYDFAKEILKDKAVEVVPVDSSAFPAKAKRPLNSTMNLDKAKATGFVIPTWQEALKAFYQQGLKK

O=C(O)c1ccc(-c2ccc(Cl)cc2)o1 [Ri03, 5‐(4‐chlorophenyl)‐2‐furoic acid]
Kd [1]: 300 µM | Kd [2]: 200 µM | Kd [3]: ~3000 µM
